Results: patent US9427482B2, “Agents for clearing biomolecules from circulation” (KONINKLIJKE PHILIPS N.V., priority 2010, dated 2016)

Key:
[1] = Mouse radiation dosimetry (voxelized mouse model, EGSNRC)
Procedure: (§1) Radiation dosimetry estimates were calculated for a male human model (standard 73 Kg adult) and for a voxelized mouse model by using the mouse biodistribution data (Example 12, Tables 7 and 8) according to the MIRD methodology. Activity concentration in these organs were converted in percent injected dose (% ID) and decay corrected to the time of injection. The % ID for blood, muscle and bone were estimated from the % ID/g of tissue and assuming 6%, 42% and 11% of the body weight. Whenever possible the time activity curves were fitted by a two-phase exponential clearance function. The fitted function was then integrated analytically to yield the organ residence times (Table 9). […] The time activity curve of the tumor was fitted by a mono-exponential uptake function defined as F(t)=a0(1−exp(−a1t)).
Radiation doses to the mouse organs were evaluated using the MIRD methodology where the S-factors in the mouse were calculated using a voxelized model of a mouse and the electron transport program EGSNRC to calculate energy deposition. The MOBY mouse phantom of Segars et al. was voxelized on a 0.2 mm grid and further modified to include the following organs: intestine wall and content, stomach wall and content, bladder wall and content and a 20 μl gall bladder. Finally, a 0.53 g tumor was added to the left side of the neck of the animal. Twenty-seven independent simulations, each for 10 millions decays, were performed with the program EGSNRC to calculate the energy deposition in each target organ for each source organ. The simulation included all decay particles from ^177Lu as listed in www.nndc.bnl.gov/MIRD tables. These S-factors were then used with the organ residence times measured above.

[2] = Human radiation dosimetry (OLINDA/EXM); settings: human model, 73 Kg adult male
Procedure: as §1
Human radiation dosimetry (Table 10) were calculated using the above measured residence times and the OLINDA/EXM program with the following assumptions: 10% of the blood residence time was assigned to the heart content and 90% was assigned to the remainder of the body; the activity measured in the small and large intestines were assigned to the organ content but the radiation dose was assigned to the organ itself; activity in the large intestine was assigned in equal part to the upper and lower large intestines; activity in the bone was assigned in equal parts to the trabecular and […] bone components. The bladder voiding model in OLINDA/EXM was used. Residence time to the red marrow was calculated as a fraction of blood residence time (τmarrow=0.08 τblood).

[3] = Organ residence times from mouse biodistribution data (MIRD)
Procedure: as §1
For ^177Lu-DOTA-CC49 some radioactivity was collected in the mixture of urine and feces. […] For the pretargeted ^177Lu-tetrazine a total of 97.8% ID was excreted.

tumor = test: Dual isotope biodistribution, mice pretargeted with CC49-TCO 20 (Example 10); type: in vivo; settings: two doses of 12; 3 h after ^177Lu-tetrazine 15
Procedure: Tumor-bearing mice (ca. 100 mm^3 tumor size; n=4) were injected with ^125I-CC49 functionalized with 7.5 TCO-20 groups (100 μg/mouse, ca. 0.2 MBq). Thirty and 48 hours post-mAb injection the mice received one dose of clearing agent (galactose-MSA-tetrazine, 160 μg/dose) followed 2 h later by ^177Lu-tetrazine 15 (10 eq. with respect to the mAb, ca. 0.5 MBq). Three hours post-tetrazine injection the mice were anesthetized and sacrificed by cervical dislocation, blood was withdrawn by heart puncture, organs and tissues of interest were harvested and blotted dry. All collected samples were weighed and added with 1 mL PBS. The sample radioactivity was measured in a gamma-counter with a dual-isotope protocol (10-80 keV window for ^125I and 155-380 keV window for ^177Lu) along with standards to determine the percent injected dose per gram tissue (% ID/g).

Effective Dose [1]: 15.6 mSv/MBq | Organ Radiation dose Bladder Wall [1]: 168 mGy/MBq | Organ Radiation dose Brain [1]: 1 mGy/MBq | Organ Radiation dose Cranium [1]: 13 mGy/MBq | Organ Radiation dose Femur [1]: 8 mGy/MBq | Organ Radiation dose Gall Bladder [1]: 2 mGy/MBq | Organ Radiation dose Heart Wall [1]: 2 mGy/MBq | Organ Radiation dose Intestine Wall [1]: 9 mGy/MBq | Organ Radiation dose Kidneys [1]: 58 mGy/MBq | Organ Radiation dose Liver [1]: 10 mGy/MBq | Organ Radiation dose Lungs [1]: 5 mGy/MBq | Organ Radiation dose Pancreas [1]: 2 mGy/MBq | Organ Radiation dose Ribs [1]: 8 mGy/MBq | Organ Radiation dose Skin [1]: 1 mGy/MBq | Organ Radiation dose Spine [1]: 8 mGy/MBq | Organ Radiation dose Spine (marrow) [1]: 7 mGy/MBq | Organ Radiation dose Spleen [1]: 15 mGy/MBq | Organ Radiation dose Stomach Wall [1]: 16 mGy/MBq | Organ Radiation dose Testes (ovaries) [1]: 1 mGy/MBq | Organ Radiation dose Thyroid [1]: 1 mGy/MBq | Organ Radiation dose Trachea [1]: 2 mGy/MBq | Radiation dose Whole Body [1]: 5 mGy/MBq | Radiation dose Tumor ([1]; 0.53 g tumor): 479 mGy/MBq | Effective Dose [2]: 0.0195 mSv/MBq | Organ Radiation dose Adrenals [2]: 0.00162 mGy/MBq | Organ Radiation dose Bladder Wall [2]: 0.104 mGy/MBq | Organ Radiation dose Brain [2]: 0.000146 mGy/MBq | Organ Radiation dose Breasts [2]: 0.0013 mGy/MBq | Organ Radiation dose Gall Bladder Wall [2]: 0.0018 mGy/MBq | Organ Radiation dose Heart Wall [2]: 0.000537 mGy/MBq | Organ Radiation dose Kidneys [2]: 0.0425 mGy/MBq | Organ Radiation dose Liver [2]: 0.0142 mGy/MBq | Organ Radiation dose Lower Large Int. [2]: 0.0363 mGy/MBq | Organ Radiation dose Lungs [2]: 0.00288 mGy/MBq | Organ Radiation dose Muscle [2]: 0.000861 mGy/MBq | Organ Radiation dose Osteogenic cells [2]: 0.00172 mGy/MBq | Organ Radiation dose Ovaries [2]: 0.0341 mGy/MBq | Organ Radiation dose Pancreas [2]: 0.00164 mGy/MBq | Organ Radiation dose Red marrow [2]: 0.00302 mGy/MBq | Organ Radiation dose Skin [2]: 0.0029 mGy/MBq | Organ Radiation dose Small Intestines [2]: 0.0101 mGy/MBq | Organ Radiation dose Spleen [2]: 0.0112 mGy/MBq | Organ Radiation dose Stomach Wall [2]: 0.00599 mGy/MBq | Organ Radiation dose Testes [2]: 0.00151 mGy/MBq | Organ Radiation dose Thymus [2]: 0.00134 mGy/MBq | Organ Radiation dose Thyroid [2]: 0.00132 mGy/MBq | Organ Radiation dose Total Body [2]: 0.00287 mGy/MBq | Organ Radiation dose Upper large Int. [2]: 0.0231 mGy/MBq | Organ Radiation dose Uterus [2]: 0.0293 mGy/MBq | Residence time Bladder Wall [3]: 0.009 h | Residence time Blood [3]: 0.067 h | Residence time Bone [3]: 0.239 h | Residence time Brain [3]: 0.001 h | Residence time Heart Wall [3]: 0.001 h | Residence time Kidneys [3]: 0.293 h | Residence time Large Intestines [3]: 0.23 h | Residence time Liver [3]: 0.302 h | Residence time Lungs [3]: 0.031 h | Residence time Muscle [3]: 0.19 h | Residence time Ovaries [3]: 0.0034 h | Residence time Small Intestines [3]: 0.082 h | Residence time Spleen [3]: 0.023 h | Residence time Stomach [3]: 0.032 h | Residence time Tumor [3]: 3.93 h | Residence time Uterus [3]: 0.026 h | Residence time remainder of the body [3]: 1 h | Residence time Red Marrow ([3]; τmarrow=0.08 τblood): 0.0054 h
Compound: O=C([O-])CN1CCN(CC(=O)[O-])CCN(CC(=O)NCCOCCOCCOCCOCCOCCOCCOCCOCCOCCOCCOCCNC(=O)CCCC(=O)Nc2ccc(-c3nnc(-c4ccccn4)nn3)nc2)CCN(CC(=O)[O-])CC1.[177Lu+3] [^177Lu-tetrazine]
^177Lu-tetrazine Blood (tumor): 0.03 ± 0.00 % ID/gram | ^177Lu-tetrazine Bone (tumor): 0.08 ± 0.04 % ID/gram | ^177Lu-tetrazine Brain (tumor): 0.01 ± 0.00 % ID/gram | ^177Lu-tetrazine Heart (tumor): 0.05 ± 0.01 % ID/gram | ^177Lu-tetrazine Kidney (tumor): 1.50 ± 0.24 % ID/gram | ^177Lu-tetrazine Liver (tumor): 0.19 ± 0.02 % ID/gram | ^177Lu-tetrazine Lung (tumor): 0.24 ± 0.02 % ID/gram | ^177Lu-tetrazine Muscle (tumor): 0.03 ± 0.00 % ID/gram | ^177Lu-tetrazine Spleen (tumor): 0.09 ± 0.01 % ID/gram | ^177Lu-tetrazine Tumor (tumor): 9.25 ± 2.16 % ID/gram | ^177Lu-tetrazine Tumor/organ Blood (tumor): 304 ± 80 | ^177Lu-tetrazine Tumor/organ Bone (tumor): 142 ± 59 | ^177Lu-tetrazine Tumor/organ Brain (tumor): 1674 ± 243 | ^177Lu-tetrazine Tumor/organ Heart (tumor): 187 ± 20 | ^177Lu-tetrazine Tumor/organ Kidney (tumor): 6 ± 2 | ^177Lu-tetrazine Tumor/organ Liver (tumor): 50 ± 10 | ^177Lu-tetrazine Tumor/organ Lung (tumor): 39 ± 8 | ^177Lu-tetrazine Tumor/organ Muscle (tumor): 328 ± 96 | ^177Lu-tetrazine Tumor/organ Spleen (tumor): 108 ± 22
